Among the test systems are ACHN renal; HS 578T breast; K-562 leukemia; MCF7 breast; MDA-MB-435; MOLT-4 leukemia; NCI/ADR-RES ovarian; PC-3 prostate; UACC-257 melanoma; UACC-62 melanoma.
Holding throughout (test): NCI anticancer screen, dose series, 48 h

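Each compound was tested at five concentrations against cells in 96-well plates for 48 hours. GI50 marks 50% less growth. The concentration for full growth arrest is given as TGI.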 A value given as a limit tells only on which side of the number the result lay.

Take `O=C1c2ccccc2C(=O)c2c1ccc1conc21`: the TGI in the test on ACHN renal was 3.75 µM; with HS 578T breast, 38.6 µM; with K-562 leukemia it was 42.5 µM; in the test with MCF7 breast it was 2.65 µM; in the test on MDA-MB-435, 1.37 µM; with MOLT-4 leukemia it was 6.25 µM. Moreover, the TGI in the test with NCI/ADR-RES ovarian stood at 8.45 µM; in the test with PC-3 prostate, 5.06 µM; with UACC-257 melanoma, 4.37 µM; in the test on UACC-62 melanoma, 5.63 µM.
For the molecule `O=C(CCN1CCCC1)Nc1ccc2c(Nc3ccc(F)cc3)c3ccccc3nc2c1`, the GI50 in the test on ACHN renal was 526 nM; in the test with HS 578T breast, 1740 nM; in the test with MCF7 breast it was 147 nM; in the test with MDA-MB-435, 1580 nM; with MOLT-4 leukemia, 133 nM; with NCI/ADR-RES ovarian, 2.11 µM. The GI50 was 1340 nM in the test with PC-3 prostate, 1.97 µM in the test with UACC-257 melanoma and 1.55 µM in the test on UACC-62 melanoma. Moreover, the TGI in the test with ACHN renal was found to be 1.98 µM; in the test on HS 578T breast it was 4.54 µM; in the test with MCF7 breast, 1.89 µM; in the test on MDA-MB-435 it was 3 µM; with MOLT-4 leukemia it was 3.02 µM; in the test on NCI/ADR-RES ovarian, 7.4 µM. The TGI in the test on PC-3 prostate was determined as 3.97 µM; with UACC-257 melanoma, 4.12 µM; in the test on UACC-62 melanoma, 3.1 µM.
As for `O=[N+]([O-])c1ccc(Sc2cccc[n+]2[O-])c2nonc12`, the GI50 with ACHN renal was 3670 nM; with HS 578T breast it was 3660 nM; with K-562 leukemia, 2100 nM; with MCF7 breast it was 1770 nM; in the test on MDA-MB-435, 6240 nM; in the test on NCI/ADR-RES ovarian, 5.73 µM. The GI50 with PC-3 prostate was 2600 nM; in the test on UACC-257 melanoma, 11.5 µM; in the test with UACC-62 melanoma, 4.58 µM. The TGI in the test with ACHN renal was 14.2 µM; in the test on HS 578T breast it was 28.1 µM; in the test on K-562 leukemia, over 100 µM; in the test with MCF7 breast, 10.8 µM; in the test on MDA-MB-435, 20.1 µM; in the test with NCI/ADR-RES ovarian it was over 52.7 µM. In addition, the TGI in the test with PC-3 prostate is 13 µM; in the test with UACC-257 melanoma it was 24.7 µM; in the test on UACC-62 melanoma it was 22.6 µM.
With `O=C(O)/C=C/c1c2ccc(=O)c(O)c-2oc2c(O)c(O)ccc12`, the TGI was over 100 µM in the test with ACHN renal; over 100 µM in the test on HS 578T breast; 50.2 µM with K-562 leukemia; 34.8 µM in the test on MCF7 breast; 33.5 µM with MDA-MB-435; 49.2 µM with MOLT-4 leukemia. For the same molecule, the TGI in the test with NCI/ADR-RES ovarian, in the test with PC-3 prostate, in the test with UACC-257 melanoma and in the test on UACC-62 melanoma was over 100 µM each time.
For the molecule `N#CC1=C(N)NC(=O)C(C#N)C12Nc1ccccc1S2` (configuration not stated), the GI50 with ACHN renal is over 100000 nM; in the test with HS 578T breast it was 43200 nM; with K-562 leukemia it was 48800 nM; with MCF7 breast, 32700 nM; in the test on MDA-MB-435 it was over 100000 nM; in the test on MOLT-4 leukemia it was 95800 nM. Moreover, the GI50 with NCI/ADR-RES ovarian was 94.9 µM; in the test on PC-3 prostate, 60400 nM; in the test on UACC-257 melanoma, 39.9 µM; in the test with UACC-62 melanoma it was 60.5 µM. Also, the TGI in the test on ACHN renal, in the test on HS 578T breast, in the test with K-562 leukemia, in the test with MCF7 breast, in the test on MDA-MB-435 and with MOLT-4 leukemia was over 100 µM throughout. Also, the TGI in the test with NCI/ADR-RES ovarian, in the test on PC-3 prostate, in the test on UACC-257 melanoma and in the test on UACC-62 melanoma was over 100 µM throughout.
Consider `COc1ccc(Cn2cc3c(c2-c2ccccc2)CCc2cnoc2-3)cc1`, for which the GI50 in the test with ACHN renal is 215 nM; in the test with HS 578T breast, 183 nM; with K-562 leukemia, 40.4 nM; in the test with MCF7 breast it was 39.1 nM; in the test on MDA-MB-435, 31.1 nM; in the test with MOLT-4 leukemia it was 361 nM. Further, the GI50 in the test on NCI/ADR-RES ovarian was 0.0462 µM; with PC-3 prostate, 96 nM; with UACC-257 melanoma it was 27.4 µM; with UACC-62 melanoma it was 0.0461 µM. The TGI in the test with ACHN renal is over 100 µM; in the test on K-562 leukemia, over 100 µM; in the test with MCF7 breast it was over 100 µM; in the test with MDA-MB-435, over 100 µM; in the test on MOLT-4 leukemia it was 4.38 µM; in the test on NCI/ADR-RES ovarian it was 11.9 µM. Also, the TGI in the test with PC-3 prostate, in the test with UACC-257 melanoma and with UACC-62 melanoma was over 100 µM throughout.
Take `COc1ccc(-n2nc(C)c3c(Nc4ccc(NC(=O)Nc5cccc(C(F)(F)F)c5)cc4)ncnc32)cc1`: the GI50 was 1600 nM in the test on ACHN renal; 1660 nM in the test on HS 578T breast; 2180 nM with K-562 leukemia; 2050 nM in the test with MCF7 breast; 1800 nM in the test on MDA-MB-435; 2010 nM with MOLT-4 leukemia. Further, the GI50 is 1.81 µM in the test on NCI/ADR-RES ovarian, 1490 nM with PC-3 prostate, 1.88 µM in the test on UACC-257 melanoma and 1.76 µM in the test with UACC-62 melanoma. The TGI is 3.43 µM with ACHN renal; 4.17 µM with HS 578T breast; 7.22 µM with K-562 leukemia; 5.57 µM with MCF7 breast; 3.78 µM in the test on MDA-MB-435; 6.16 µM with MOLT-4 leukemia. Moreover, the TGI turned out to be 4.72 µM with NCI/ADR-RES ovarian, 3.9 µM with PC-3 prostate, 4.18 µM in the test on UACC-257 melanoma and 3.46 µM with UACC-62 melanoma.
In the case of `COc1ccc(-c2nc(NC(=O)CS(=O)(=O)c3ccc(F)cc3)sc2C)cc1`, the GI50 is 30000 nM in the test with ACHN renal; 14800 nM with HS 578T breast; 3940 nM in the test on K-562 leukemia; 16300 nM in the test with MCF7 breast; 3290 nM with MDA-MB-435; 14500 nM with MOLT-4 leukemia. In addition, the GI50 in the test with NCI/ADR-RES ovarian was 17.4 µM; in the test with PC-3 prostate, 21100 nM; with UACC-62 melanoma, 13.1 µM. For the same molecule, the TGI with ACHN renal was over 100 µM; in the test on HS 578T breast it was 63.3 µM; in the test on K-562 leukemia, over 100 µM; in the test on MCF7 breast, over 100 µM; in the test with MDA-MB-435, 12.1 µM; in the test on MOLT-4 leukemia, over 100 µM. For the same molecule, the TGI in the test with NCI/ADR-RES ovarian is over 100 µM; in the test on PC-3 prostate it was 94.7 µM; in the test on UACC-62 melanoma it was 32.9 µM.
On to `O=NNc1ccc(-c2ccccc2)cn1`, for which the TGI with ACHN renal is 15 µM; with HS 578T breast, over 58.9 µM; in the test with K-562 leukemia, over 100 µM; in the test on MCF7 breast, over 23.6 µM; with MDA-MB-435 it was 30.9 µM; in the test on NCI/ADR-RES ovarian, over 43.1 µM. Moreover, the TGI was 61.2 µM in the test on PC-3 prostate, over 90.6 µM in the test on UACC-257 melanoma and 31.3 µM with UACC-62 melanoma.

Source of the values: PubChem BioAssay (NCI).
